Calls of active or inactive are those of the source.
What was measured:
[1] = RanGTP/importin-beta interaction disruptors – biochemical, plate reader, dry powder, dose response (AID 493048); design: species or system Homo sapiens
[2] = biological target: Mothers against decapentaplegic homolog 3 (Homo sapiens, UniProt P84022); test: blockers of Smad3 complex formation in lysate – cell lysate, secondary confirmation, chemiluminescent ELISA, HEK293 lysate, dose response (AID 1058); assay type: functional
[3] = biological target: T1, Short transient receptor potential channel 4 (Mus musculus, UniProt Q9QUQ5); test: potentiation of DAMGO-evoked TRPC4 calcium signal – cell-based, HEK293 TRPC4/mu-opioid, Fluo-4 calcium, EC20 DAMGO, dose response (AID 434941); assay type: functional
T1 sequence (Q9QUQ5 whole entry): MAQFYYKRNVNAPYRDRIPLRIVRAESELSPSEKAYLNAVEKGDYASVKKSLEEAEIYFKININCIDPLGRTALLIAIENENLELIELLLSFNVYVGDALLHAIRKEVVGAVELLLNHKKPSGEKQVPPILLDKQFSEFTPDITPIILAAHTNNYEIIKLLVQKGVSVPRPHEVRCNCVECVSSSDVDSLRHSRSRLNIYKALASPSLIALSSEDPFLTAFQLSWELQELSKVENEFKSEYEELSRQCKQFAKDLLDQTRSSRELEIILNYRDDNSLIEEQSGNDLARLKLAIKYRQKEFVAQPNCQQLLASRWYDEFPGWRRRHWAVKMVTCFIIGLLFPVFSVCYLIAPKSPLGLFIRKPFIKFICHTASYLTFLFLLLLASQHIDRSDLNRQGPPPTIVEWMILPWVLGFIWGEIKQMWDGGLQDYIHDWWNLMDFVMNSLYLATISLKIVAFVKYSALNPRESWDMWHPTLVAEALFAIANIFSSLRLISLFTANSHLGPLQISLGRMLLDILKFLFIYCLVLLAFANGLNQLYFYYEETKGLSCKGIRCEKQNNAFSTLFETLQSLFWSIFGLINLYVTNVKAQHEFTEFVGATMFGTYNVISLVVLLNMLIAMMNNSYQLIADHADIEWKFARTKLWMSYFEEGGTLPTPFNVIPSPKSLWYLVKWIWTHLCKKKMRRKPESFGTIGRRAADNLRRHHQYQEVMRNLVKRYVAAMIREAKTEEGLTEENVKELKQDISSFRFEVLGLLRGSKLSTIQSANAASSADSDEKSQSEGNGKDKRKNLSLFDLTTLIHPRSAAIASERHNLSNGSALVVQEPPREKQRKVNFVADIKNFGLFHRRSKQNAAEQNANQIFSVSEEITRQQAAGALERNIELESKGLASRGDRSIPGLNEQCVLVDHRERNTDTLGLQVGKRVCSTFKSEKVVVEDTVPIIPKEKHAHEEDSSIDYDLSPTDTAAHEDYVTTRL

Trypsin = Trypsin (Sus scrofa, UniProt P00761); test: trypsin protease activity blockade – biochemical, quenched peptide fluorescence, cherry-pick, selectivity assay for Rce1 protease inhibitor project, dose response (AID 488789)
Vero [4] = test: host cell viability loss, Vero E6 – synthesized analogs, cytotoxicity control for West Nile virus antiviral project, SAR follow-up (AID 2244); assay type: functional; conditions: Chlorocebus sabaeus
Vero [5] = test: inhibition of WNV-induced cytopathic effect – cell-based, CPE readout (AID 1621); assay type: functional; conditions: Chlorocebus sabaeus
Vero [6] = test: Vero 76 cell viability after compound exposure – Vero 76 cells, synthesized analogs, cytotoxicity control for West Nile virus antiviral project, SAR follow-up (AID 2414); assay type: functional; conditions: Chlorocebus sabaeus
Vero [7] = test: mammalian cell viability reduction – secondary assay, cytotoxicity control for West Nile virus antiviral project, dose response (AID 1650); assay type: functional; conditions: Chlorocebus sabaeus
Vero [8] = test: antiviral protection of cells from WNV – synthesized analogs, SAR follow-up (AID 2238); assay type: functional, cell-based; conditions: Chlorocebus sabaeus
Vero [9] = test: Vero cell viability after compound exposure – synthesized analogs, set II, cytotoxicity control for West Nile virus antiviral project, SAR follow-up (AID 2402); assay type: functional; conditions: Chlorocebus sabaeus
[10] = A Cell Based Assay for the Identification of Probe candidate Compounds with Anti- Venezuelan Equine Encephalitis virus. [Related pubchem assays: 2409, 2419, 1621, 2238, 2405, 2024, 2065, 2402, 2414, 1635, 1650, 2244 ]; assay type: functional
[11] = biological target: G-protein coupled receptor 55 (Homo sapiens, UniProt Q9Y2T6); test: selective activators of receptor GPR55 – imaging, U2OS cells, beta-arrestin-GFP redistribution, primary screen (AID 1961); assay type: functional
[12] = biological target: T2, Eukaryotic translation initiation factor 2-alpha kinase 3 (Homo sapiens, UniProt Q9NZJ5); test: Dose response cell-based high-throughput screening assay to measure PERK inhibition. [Related pubchem assays: 1416 ]; assay type: functional
[13] = biological target: T2, Eukaryotic translation initiation factor 2-alpha kinase 3; test: Counterscreen assay for PERK inhibitors: Dose response cell-based high throughput screening assay to measure inhibition of PERK at 6 hours. [Related pubchem assays: 1522, 1416 ]; assay type: functional
[14] = A cytotoxicity screen of small molecule inhibitors of the PhoP region in Salmonella typhi identified in the primary screen. [Related pubchem assays: 1850, 1864, 1985 ]; assay type: functional

T2 sequence (Q9NZJ5 whole entry): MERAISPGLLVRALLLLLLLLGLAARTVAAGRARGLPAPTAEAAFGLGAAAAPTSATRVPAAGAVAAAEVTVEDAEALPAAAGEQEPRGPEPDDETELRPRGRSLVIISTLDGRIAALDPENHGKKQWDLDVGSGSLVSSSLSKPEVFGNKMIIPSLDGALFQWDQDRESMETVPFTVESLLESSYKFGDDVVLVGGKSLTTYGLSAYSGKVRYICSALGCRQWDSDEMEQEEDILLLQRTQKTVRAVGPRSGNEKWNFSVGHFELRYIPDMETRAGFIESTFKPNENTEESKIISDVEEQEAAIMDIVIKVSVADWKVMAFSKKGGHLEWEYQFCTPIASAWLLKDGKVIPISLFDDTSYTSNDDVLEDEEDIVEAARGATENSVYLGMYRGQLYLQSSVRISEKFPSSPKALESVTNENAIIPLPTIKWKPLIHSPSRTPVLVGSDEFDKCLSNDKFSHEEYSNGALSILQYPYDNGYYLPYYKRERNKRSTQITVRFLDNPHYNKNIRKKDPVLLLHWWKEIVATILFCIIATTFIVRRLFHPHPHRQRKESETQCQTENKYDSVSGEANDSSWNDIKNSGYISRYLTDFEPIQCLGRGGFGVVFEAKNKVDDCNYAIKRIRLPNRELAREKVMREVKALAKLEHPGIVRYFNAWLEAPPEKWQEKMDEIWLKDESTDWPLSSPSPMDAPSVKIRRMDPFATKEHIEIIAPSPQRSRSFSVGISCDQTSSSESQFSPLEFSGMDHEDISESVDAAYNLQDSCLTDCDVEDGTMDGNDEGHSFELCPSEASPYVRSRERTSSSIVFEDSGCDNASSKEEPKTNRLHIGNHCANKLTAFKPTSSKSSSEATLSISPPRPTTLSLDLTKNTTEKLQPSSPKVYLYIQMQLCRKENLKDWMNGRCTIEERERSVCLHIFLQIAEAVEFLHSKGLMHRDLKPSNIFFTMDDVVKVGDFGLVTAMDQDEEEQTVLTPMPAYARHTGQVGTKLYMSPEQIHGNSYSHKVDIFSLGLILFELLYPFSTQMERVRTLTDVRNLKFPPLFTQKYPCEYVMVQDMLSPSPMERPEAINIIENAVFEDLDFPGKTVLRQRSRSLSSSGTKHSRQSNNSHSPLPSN
Sequence of G-protein coupled receptor 55 (Q9Y2T6 whole entry): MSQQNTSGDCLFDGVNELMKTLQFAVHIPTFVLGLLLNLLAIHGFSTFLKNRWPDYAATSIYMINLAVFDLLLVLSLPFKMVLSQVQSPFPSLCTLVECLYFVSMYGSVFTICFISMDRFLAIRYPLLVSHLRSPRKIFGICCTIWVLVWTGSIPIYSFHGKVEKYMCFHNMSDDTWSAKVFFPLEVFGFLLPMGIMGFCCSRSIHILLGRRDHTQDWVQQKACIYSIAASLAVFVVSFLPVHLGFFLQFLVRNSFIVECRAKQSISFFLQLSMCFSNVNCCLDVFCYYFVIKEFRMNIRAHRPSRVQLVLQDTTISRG
Sequence of Trypsin (P00761 whole entry): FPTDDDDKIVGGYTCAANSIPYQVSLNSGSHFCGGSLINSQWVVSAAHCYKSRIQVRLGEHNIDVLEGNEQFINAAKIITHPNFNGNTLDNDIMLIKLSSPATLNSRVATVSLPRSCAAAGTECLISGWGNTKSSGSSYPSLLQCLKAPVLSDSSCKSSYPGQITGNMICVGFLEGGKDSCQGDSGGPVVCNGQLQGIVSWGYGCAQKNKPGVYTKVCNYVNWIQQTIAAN
Sequence of Mothers against decapentaplegic homolog 3 (P84022 whole entry): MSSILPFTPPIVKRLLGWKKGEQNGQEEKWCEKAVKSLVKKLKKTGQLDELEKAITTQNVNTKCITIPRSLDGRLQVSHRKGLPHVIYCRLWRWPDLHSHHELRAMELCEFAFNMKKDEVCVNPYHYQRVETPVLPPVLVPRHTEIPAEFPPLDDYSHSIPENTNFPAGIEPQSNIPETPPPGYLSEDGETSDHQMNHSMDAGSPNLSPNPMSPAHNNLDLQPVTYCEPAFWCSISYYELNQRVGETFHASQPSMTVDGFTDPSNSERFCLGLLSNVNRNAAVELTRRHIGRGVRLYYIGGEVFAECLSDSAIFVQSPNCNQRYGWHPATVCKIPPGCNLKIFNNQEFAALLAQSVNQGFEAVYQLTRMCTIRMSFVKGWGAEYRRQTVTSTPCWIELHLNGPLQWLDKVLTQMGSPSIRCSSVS

Structure (SMILES): COCCNC(=O)/C(C#N)=C/c1cn(CC(=O)NCc2ccco2)c2ccccc12
- AC50 [1]: 174 µM (active)

Structure (SMILES): COc1cc(C(c2cc3c(cc2O)OCO3)N2CCOCC2)cc(OC)c1OC (stereo not given)
- IC50 [2]: 9.66 µM (not active)

Structure (SMILES): O=C(NCc1ccccc1)C1=C[C@H](c2ccc(C(F)(F)F)cc2)C[C@H](OCc2ccc(CO)cc2)O1
- EC50 [3]: 5.96 µM (active)

Structure (SMILES): COCc1c(Br)c(C)nc(O)c1C#N
- AC50 (Trypsin): 72.8 µM (active)

Structure (SMILES): CC1CCN(CCCNC(=O)c2cc3c(s2)-c2ccccc2OC3)CC1
- CC50 (Vero [4]): 26.2 µM (active)
- IC50 (Vero [5]): 25.1 µM (active)
- CC50 (Vero [6]): > 66.6 µM (active)
- CC50 (Vero [7]): > 100 µM (active)
- IC50 (Vero [8]): > 40 µM (active)
- CC50 (Vero [9]): 19.5 µM (active)
- IC50 [10]: 18.2 µM (active)

Structure (SMILES): CC(C)C[C@@H](CSc1ccc(Br)cc1)N1CCN(CCc2ccccc2)CCC1=O
- EC50 [11]: 7.59 µM (active)

Structure (SMILES): CCSc1nnc(NC(=O)c2cc(-c3ccccc3O)[nH]n2)s1
- EC50 [12]: > 55.7 µM (not active)
- EC50 [13]: > 55.7 µM (not active)

Structure (SMILES): CC(C)(C)n1nc2c(c1NC(=O)c1ccccc1)CS(=O)(=O)C2
- EC50 [14]: > 50 µM (active)

From ChEMBL document CHEMBL1201862, “PubChem BioAssay data set” (2004)
